Measurements reported in patent US9724358B2, “Minocycline compounds and methods of use thereof” (Paratek Pharmaceuticals, Inc., priority 2008, dated 2017).
Marks after values point to notes of the source that are not given here.

What was measured:
[1] = Phase 2 CSSSI study, safety: ALT level; format: in vivo, human
Procedure: (§1) A randomized (1:1), controlled, evaluator-blinded Phase 2 study comparing 9-[(2,2-dimethyl-propyl amino)-methyl-minocycline (compound 1) and linezolid (Zyvox™) for the treatment of complicated skin and skin structure infections (CSSSI) was conducted. Patients with CSSSI who required initial intravenous (IV) therapy and met inclusion and exclusion criteria were enrolled at 11 centers in the US and were randomized to receive either compound 1 (100 mg Q24 h IV with 200 mg Q24 h oral step-down) or linezolid (600 mg Q12 h IV with 600 mg Q12 h oral step-down).
(§2) At each of the four structured evaluations, the blinded evaluator assessed the subject, with particular attention to scoring the findings at the primary site of infection and obtaining cultures. Clinical and microbiologic outcomes were determined using these assessments. Primary evaluation criteria was safety and tolerability compared with linezolid. Secondary evaluation criteria was efficacy of compound 1 compared to linezolid, as well as pharmacokinetics of compound 1.

infecting pathogen = experiment: Phase 2 CSSSI study, microbiology outcome; format: in vivo, human; settings: ME population
Procedure: (§3) An infecting pathogen was defined as an isolate derived from the last positive culture taken from the site of infection under study prior to and including day 1.
A persisting pathogen at the site of infection under study was defined as an isolate that was the same genus and species as an infecting pathogen; and was cultured at the Test-of-Cure evaluation from the site of infection under study.
A superinfecting pathogen at the site of infection under study is defined as a pathogen meeting all of the following criteria: represented a genus and species not isolated during the Enrollment evaluation, was cultured at any time from the day 3 of treatment to the test of cure evaluation, inclusive; was cultured from a patient who had at least one infecting pathogen; and was cultured from a patient who represents a “clinical failure.”
Microbiological response to treatment was determined for each infecting pathogen using the following classification: documented eradication, presumed eradication, documented persistence, presumed persistence, or unknown.
Microbiological response to treatment was determined for each subject using the following classification:
Microbiologic Success—all infecting pathogens isolated at baseline were eradicated or presumed eradicated at the test-of-cure evaluation and no superinfecting pathogen was isolated from the site of infection under study.
Microbiological Failure—persistence or presumed persistence of one or more infecting pathogens or isolation of a superinfecting pathogen from the site of infection under study.

B-Strep = experiment: Phase 2 CSSSI study, clinical outcome by organism: B-Strep; format: in vivo, B-streptococci
Procedure: as §1, §3

Mixed GPC/GNR = experiment: Phase 2 CSSSI study, clinical outcome by organism: Mixed GPC/GNR; format: in vivo; settings: ME population
Procedure: as §1, §3

Mixed GPC = experiment: Phase 2 CSSSI study, clinical outcome by organism: Mixed GPC; format: in vivo; settings: ME population
Procedure: as §1, §3

MSSA = experiment: Phase 2 CSSSI study, clinical outcome by organism: MSSA; format: in vivo, Staphylococcus aureus
Procedure: as §1, §3

GNR = experiment: Phase 2 CSSSI study, clinical outcome by organism: GNR; format: in vivo, gram-negative rods; settings: ME population
Procedure: as §1, §3

Enterococcus = experiment: Phase 2 CSSSI study, clinical outcome by organism: Enterococcus; format: in vivo; settings: ME population
Procedure: as §1, §3

[2] = Phase 2 CSSSI study, safety and adverse events by patient; format: in vivo, human
Procedure: as §1, §2
In addition, the patients in the study were monitored for adverse events (AE). An adverse event is any untoward medical occurrence temporally associated with the use of a medical product in a subject, whether or not the event is considered causally related to the medical product.

Viridans Strep = experiment: Phase 2 CSSSI study, clinical outcome by organism: Viridans Strep; format: in vivo, Viridans Streptococci; settings: ME population
Procedure: as §1, §3

[3] = EOT, ALT abnormal at enrollment
[4] = EOT, ALT within normal limits at enrollment
[5] = TOC, ALT abnormal at enrollment
[6] = TOC, ALT within normal limits at enrollment
[7] = max on treatment, ALT abnormal at enrollment
[8] = max on treatment, ALT within normal limits at enrollment
[9] = clinical failure, no pathogen at TOC
[10] = clinical success, enrollment pathogen isolated at TOC
[11] = clinical success, no pathogen at TOC
[12] = as determined in the trials of the Exemplification
[13] = probably or possibly drug-related by blinded evaluator

Structure (SMILES): CC(=O)NCC1CN(c2ccc(N3CCOCC3)c(F)c2)C(=O)O1 (stereo not drawn) [Linezolid, N-[[3-(3-fluoro-4-morpholinophenyl)-2-oxooxazolidin-5-yl]methyl]acetamide, reference compound]
- ALT Increase: >2x ULN and 2x baseline (number) [1, 3]: 0
- ALT NS: >ULN and <2x baseline (%) [1, 3]: (63.6%)
- ALT NS: >ULN and <2x baseline (number) [1, 3]: 7
- ALT Within normal limits (%) [1, 3]: (36.4%)
- ALT Within normal limits (number) [1, 3]: 4
- ALT 1x-2x (%) [1, 4]: (10.0%)
- ALT 1x-2x (number) [1, 4]: 9
- ALT 2x-3x (%) [1, 4]: (1.1%)
- ALT 2x-3x (number) [1, 4]: 1
- ALT >3x (%) [1, 4]: (1.1%)
- ALT >3x (number) [1, 4]: 1
- ALT Within normal limits (%) [1, 4]: (87.8%)
- ALT Within normal limits (number) [1, 4]: 79
- ALT Increase: >2x ULN and 2x baseline (%) [1, 5]: (8.3%)
- ALT Increase: >2x ULN and 2x baseline (number) [1, 5]: 1
- ALT NS: >ULN and <2x baseline (%) [1, 5]: (50.0%)
- ALT NS: >ULN and <2x baseline (number) [1, 5]: 6
- ALT Within normal limits (%) [1, 5]: (41.7%)
- ALT Within normal limits (number) [1, 5]: 5
- ALT 1x-2x (%) [1, 6]: (5.1%)
- ALT 1x-2x (number) [1, 6]: 4
- ALT 2x-3x (number) [1, 6]: 0
- ALT >3x (number) [1, 6]: 0
- ALT Within normal limits (%) [1, 6]: (94.9%)
- ALT Within normal limits (number) [1, 6]: 75
- ALT Increase: >2x ULN and 2x baseline (%) [1, 7]: (16.7%)
- ALT Increase: >2x ULN and 2x baseline (number) [1, 7]: 2
- ALT NS: >ULN and <2x baseline (%) [1, 7]: (66.7%)
- ALT NS: >ULN and <2x baseline (number) [1, 7]: 8
- ALT Within normal limits (%) [1, 7]: (16.7%)
- ALT Within normal limits (number) [1, 7]: 2
- ALT 1x-2x (%) [1, 8]: (14.7%)
- ALT 1x-2x (number) [1, 8]: 14
- ALT 2x-3x (%) [1, 8]: (5.3%)
- ALT 2x-3x (number) [1, 8]: 5
- ALT >3x (%) [1, 8]: (1.1%)
- ALT >3x (number) [1, 8]: 1
- ALT Within normal limits (%) [1, 8]: (78.9%)
- ALT Within normal limits (number) [1, 8]: 75
- Presumed Persistence (% of subjects) (infecting pathogen; [9]): 6.3%
- Presumed Persistence (number of subjects) (infecting pathogen; [9]): 4
- Persistence (% of subjects) (infecting pathogen; [10]): 1.6%
- Persistence (number of subjects) (infecting pathogen; [10]): 1
- Presumed Eradication (% of subjects) (infecting pathogen; [11]): 92.1%
- Presumed Eradication (number of subjects) (infecting pathogen; [11]): 58
- Clinical outcome Failure (number) (B-Strep; ME population, B-Strep): 2
- Clinical outcome Success (number) (B-Strep; ME population, B-Strep): 0
- clinical success rate against B. streptococci (B-Strep; [12]): 0%
- Clinical outcome Failure (number) (Mixed GPC/GNR): 0
- Clinical outcome Success (number) (Mixed GPC/GNR): 10
- Clinical outcome Failure (number) (Mixed GPC): 2
- Clinical outcome Success (number) (Mixed GPC): 9
- Clinical outcome Failure (number) (MSSA; ME population, MSSA): 2
- Clinical outcome Success (number) (MSSA; ME population, MSSA): 21
- clinical success rate against MSSA (MSSA; [12]): 91%
- Clinical outcome Failure (number) (GNR): 0
- Clinical outcome Success (number) (GNR): 7
- Clinical outcome Failure (number) (Enterococcus): 0
- Clinical outcome Success (number) (Enterococcus): 3
- Adverse events by patient, Cardiac, Drug Related [2, 13]: 3
- Adverse events by patient, Ear, Drug Related [2, 13]: 1
- Adverse events by patient, Eye, Drug Related [2, 13]: 1
- Adverse events by patient, GI, Drug Related [2, 13]: 13^b
- Adverse events by patient, General, Drug Related [2, 13]: 4
- Adverse events by patient, Heme, Drug Related [2, 13]: 0
- Adverse events by patient, Infection, Drug Related [2, 13]: 1
- Adverse events by patient, Injury, Drug Related [2, 13]: 1
- Adverse events by patient, Investigations, Drug Related [2, 13]: 8
- Adverse events by patient, Metabolism, Drug Related [2, 13]: 2
- Adverse events by patient, Musculoskeletal, Drug Related [2, 13]: 0
- Adverse events by patient, Neurologic, Drug Related [2, 13]: 7
- Adverse events by patient, Psych, Drug Related [2, 13]: 3
- Adverse events by patient, Renal, Drug Related [2, 13]: 0
- Adverse events by patient, Reproductive, Drug Related [2, 13]: 0
- Adverse events by patient, Respiratory, Drug Related [2, 13]: 0
- Adverse events by patient, Skin, Drug Related [2, 13]: 6^c
- Adverse events by patient, Vascular, Drug Related [2, 13]: 1
- Adverse events by patient, GI, Drug Related ([2]; probably or possibly drug-related by blinded evaluator, listed as linezolid): 13
- Adverse events by patient, Cardiac, Total ([2]; safety population): 4
- Adverse events by patient, Ear, Total ([2]; safety population): 2
- Adverse events by patient, Eye, Total ([2]; safety population): 1
- Adverse events by patient, GI, Total ([2]; safety population): 21
- Adverse events by patient, General, Total ([2]; safety population): 8
- Adverse events by patient, Heme, Total ([2]; safety population): 2
- Adverse events by patient, Infection, Total ([2]; safety population): 9
- Adverse events by patient, Injury, Total ([2]; safety population): 1
- Adverse events by patient, Investigations, Total ([2]; safety population): 11
- Adverse events by patient, Metabolism, Total ([2]; safety population): 7
- Adverse events by patient, Musculoskeletal, Total ([2]; safety population): 2
- Adverse events by patient, Neurologic, Total ([2]; safety population): 15
- Adverse events by patient, Psych, Total ([2]; safety population): 6
- Adverse events by patient, Renal, Total ([2]; safety population): 2
- Adverse events by patient, Reproductive, Total ([2]; safety population): 1
- Adverse events by patient, Respiratory, Total ([2]; safety population): 2
- Adverse events by patient, Skin, Total ([2]; safety population): 10
- Adverse events by patient, Vascular, Total ([2]; safety population): 1
- Patients with no adverse event (None), % ([2]; safety population): 49.1%
- Patients with no adverse event (None), number ([2]; safety population): 53
- Total Patients with 1 or more AE, % ([2]; safety population): 50.9%
- Total Patients with 1 or more AE, number ([2]; safety population): 55
- Clinical outcome Failure (number) (Viridans Strep): 0
- Clinical outcome Success (number) (Viridans Strep): 6
